Data as given in US10835500B2, “Medicament for accelerated wound healing” (Symrise AG, priority 2014, dated 2020).
Entries after “also recorded” stand apart in the source; their conditions may differ. Read-outs that look alike come from different tables or passages of the source.

Tests used:
HaCaT cells [1] = assay: Calcium imaging in HaCaT cells; type: cell-based, human; settings: for calcium signals on repeated stimulation: repeated application (500 μM in FIG. 9); for EC50: calcium signal amplitude, read-out: ECR50R value
Protocol: In the fourth application, saturation occurred at approx. 500 μM (FIG. 9d). The ECR50R value was 430 μM of Sandalore® in the first application and 112 μM of Sandalore® in the fourth application.
The Sandalore®-induced signal cascade in HaCaT cells and primary keratinocytes was pharmacologically characterized using the calcium imaging technique and specific blockers of signal cascade proteins. An investigation was first conducted in order to determine whether the calcium signals are caused by calcium inflow from the extracellular space. For this purpose, a calcium-free extracellular solution was used with a calcium chelator (EGTA) added. […] In order to investigate the role of adenylyl cyclase, the specific blockers SQ-22536 and MDL-12330A were used. […] The efficacy of the blockers was tested in this case with histamine, which activated the PLC signalling pathway (FIG. 11c). […]
In order to characterize the antagonists, HaCaT cells were first repeatedly stimulated with Sandalore® (1 mM). On the third application, costimulation (1:1) with Sandalore® and one of the antagonists took place. […] Based on this, dose-dependent characterization of inhibition was to be carried out. For this purpose, Sandalore® and the antagonists were costimulated with different concentrations.
Effect of the OR2AT4 ligand Sandalore® on intracellular calcium concentration of cultivated keratinocytes. […] 100 μM of ATP was used at the end of each measurement as a positive control stimulus. Right: Quantitative evaluation of calcium signals in 4-time application of Sandalore® (500 μM). Shown are the mean values of the individual applications including standard error. Mann-Whitney U test. *: p<0.05. C) and D): dose-dependent activation of HaCaT cells in calcium imaging experiments. Shown are the mean amplitudes including standard error at various concentrations in the first (C) and fourth (D) Sandalore® application. Number of cells measured: 0.0125 mM (39), 0.025 mM (30), 0.1 mM (46), 0.5 mM (34), 1 mM (63), 2 mM (41), 10 mM (36).
A) Representative calcium imaging traces of HaCaT cells (left) and primary keratinocytes (right) incubated with the gap junction blocker 1-octanol (500 μM) and then repeatedly stimulated with Sandalore® (500 μM, horizontal bars) (blue trace). […] 100 μM of ATP was used at the end of each measurement as a positive control stimulus. Quantitative evaluation of HaCaT cells (B) and primary keratinocytes (C) incubated with the gap junction blockers 1-octanol (500 μM) or carbenoxolone (10 μM) and then repeatedly stimulated with Sandalore® (500 μM) or Lyral (1 mM) in calcium imaging experiments. Shown are the mean values of the individual applications including standard error relative to the control measurements (Sandalore® application without blocker). Mann-Whitney U test. Number of cells measured: Sandalore®+1-octanol (HaCaT (110), keratinocytes (26)); Sandalore®+carbenoxolone: HaCaT (74); Lyral+carbenoxolone: HaCaT (43). ***: p<0.001.
Pharmacological characterization of Sandalore®-induced signal cascade in human keratinocytes. A)-D). Shown are representative calcium imaging traces of primary keratinocytes in the presence of a blocker (blue). The horizontal bars correspond to the application times. 100 μM of ATP was used at the end of each measurement as a positive control stimulus. A) Measurement with calcium-free extracellular solution (+10 mM EGTA). B) Measurement with the adenylyl cyclase blocker SQ-22536 (100 μM). C) Use of the phospholipase-C blocker U-73122 (10 μM). 100 μM of histamine was taken as a positive control. D) Measurement with the CNG channel blocker L-cis-diltiazem (150 μM). E) Overview of pharmacological measurement of HaCaT cells and primary keratinocytes (Kera). The mean amplitudes relative to the control measurements (dashed line) are indicated. MDL-12330A (40 μM). […]

HaCaT cells [2] = assay: In vitro wound scratch assay, HaCaT cells; type: cell-based, human; settings: for faster closing of the scratch: HaCaT cells, 500 μM, observed for two days
Source text: The MAP kinases p38 and ERK1/2 are often associated with increased proliferation and migration in epidermal wound healing. For this reason, in a further physiological experiment, the effect of Sandalore® on “wound healing” of a confluent cell layer of HaCaT cells or primary keratinocytes was investigated. For this purpose, the wound scratch assay was used, which is an established in vitro method for initial investigations of wound healing processes in keratinocytes.
In order to investigate the role of the OR2AT4 receptor in this effect, a test was conducted to determine whether the two antagonists Oxyphenylon and Phenirat could again reduce the “wound healing” increased by Sandalore®. For this purpose, Sandalore® was mixed with one of the antagonists each in the same ratio, and the effect on “wound healing” of the HaCaT cells was again observed for 48 hours. […] The two antagonists alone had no effect on the “wound healing” (FIG. 18d). The role of the MAP kinases p38 and ERK1/2 was investigated by means of specific inhibitors of the kinases. For p38 MAPK, the […] SB203580 was used, and for ERK1/2 MAPK, the […] U0126 was used. […] The two inhibitors alone had no effect on the wound healing (FIG. 18d).
Effect of Sandalore® stimulation on human keratinocytes in an in vitro “wound healing” assay. Investigation of the “wound healing rate” of A) primary keratinocytes and B) HaCaT cells by means of a wound scratch assay in the presence of Sandalore® (500 μM) or 0.1% DMSO as a control. Left: Transmitted light images of the “wound” observed at various times. The growth margin of the cells was surrounded in black. Scale: 200 μm. Right: Quantitative evaluation of the wound scratch assay. The areas of the wounds were measured and compared to the initial wound (0 h). Mean values including standard error. Mann-Whitney U test; n=4 experiments. *: p<0.05; ***: p<0.001. C) Wound scratch assay in the presence of Sandalore® (500 μM) and one of the antagonists Oxyphenylon (500 μM) or Phenirat (500 μM) respectively, the p38 MAPK inhibitor 5B203580 (10 μM), or the ERK1/2 MAPK inhibitor U0126 (10 μM). The measured wound areas of the treated cells (after 48-hour stimulation) were compared to the control (0.1% DMSO). Mean values including standard error. Kruskal-Wallis test with multiple comparison; n=3 experiments. *: p<0.05. D) Controls for the wound scratch assay with Oxyphenylon (500 μM), Phenirat (500 μM), 5B203580 (10 μM), or U0126 (10 μM) carried out under C). The measured wound areas of the treated cells were compared to the control (0.1% DMSO). Mean value included.

| Compound | calcium signals on repeated stimulation (HaCaT cells [1]; HaCaT cells) | faster closing of the scratch (HaCaT cells [2]) [%] | inhibitory action on Sandalore-induced calcium signals (HaCaT cells [1]; Sandalore 500 μM + antagonist 100 μM) | amplitude heights, % of the control amplitudes (HaCaT cells [1]; Sandalore 500 μM + antagonist 250 μM) [%] | calcium signals, % of the control amplitude (Sandalore without antagonists) (HaCaT cells [1]; Sandalore 500 μM + antagonist 500 μM) [%] | blocking of Sandalore-induced calcium signals (HaCaT cells [1]; antagonist 500 μM, Sandalore 750 μM) | inhibition of Sandalore-induced calcium signals (HaCaT cells [1]; antagonist 500 μM, Sandalore 1 mM) | IC50 (HaCaT cells [1]; inhibition of calcium signals induced by 500 μM Sandalore, read-out: IC50 values (mean inhibitory concentrations)) [µM] | effect on Sandalore-induced calcium signals on coapplication (HaCaT cells [1]; third application, costimulation 1:1 with Sandalore 1 mM) | Sandalore-increased wound healing on coincubation (HaCaT cells [2]; HaCaT, 48 hours, Sandalore 500 μM + antagonist 500 μM or inhibitor 10 μM) | effect of the substance alone on wound healing (HaCaT cells [2]; HaCaT, antagonist 500 μM or inhibitor 10 μM alone) | share of cells repeatedly stimulated (HaCaT cells [1]; HaCaT cells, calcium imaging) | calcium signals on repeated stimulation (HaCaT cells [1]; HaCaT cells, listed as Sandalore) | concentration at which dose-dependent activation begins (HaCaT cells [1]; amplitude of the first application) [µM] | EC50 (HaCaT cells [1]; first application) [µM] | EC50 (HaCaT cells [1]; fourth application) [µM] | concentration from which saturation is reached (HaCaT cells [1]; first application) | concentration at which saturation occurred (HaCaT cells [1]; fourth application) |
| --- | --- | --- | --- | --- | --- | --- | --- | --- | --- | --- | --- | --- | --- | --- | --- | --- | --- | --- |
| CC1=CCC(CCC(C)CO)C1(C)C (centres unmarked) [Brahmanol®] | significant sensitization | 26 |  |  |  |  |  |  |  |  |  |  |  |  |  |  |  |  |
| CC(=O)CCc1ccc(O)cc1 [Oxyphenylon] |  |  | disappeared completely | 39 | 8 | decreased | completely eliminated | 174 | significant reduction | reduced “wound healing” to the normal level | no effect |  |  |  |  |  |  |  |
| CC1=CCC(CCC(C)C(C)O)C1(C)C (centres unmarked) [Sandalore®] | significant sensitization; also recorded: induced calcium signals | 26 |  |  |  |  |  |  |  |  |  | 80-90% | significant sensitization | 100 | 430 | 112 | approx. 2 mM | approx. 500 μM |
